{"source": "paper PMC8355244", "about": "“A fragment-based approach identifies an allosteric pocket that impacts malate dehydrogenase activity” (Communications Biology, 2021)", "type_in_all_cases": "biochemical", "key": {"[1]": {"target": "T1, PfMDH (Plasmodium falciparum, UniProt Q6VVP7)", "T1 construct": "The full-length WT PfMDH gene was cloned into pETM-13; made in house; host or cells: E. coli Rosetta 2 (DE3) pLysS", "T1 sequence (Q6VVP7 entry or part of it)": "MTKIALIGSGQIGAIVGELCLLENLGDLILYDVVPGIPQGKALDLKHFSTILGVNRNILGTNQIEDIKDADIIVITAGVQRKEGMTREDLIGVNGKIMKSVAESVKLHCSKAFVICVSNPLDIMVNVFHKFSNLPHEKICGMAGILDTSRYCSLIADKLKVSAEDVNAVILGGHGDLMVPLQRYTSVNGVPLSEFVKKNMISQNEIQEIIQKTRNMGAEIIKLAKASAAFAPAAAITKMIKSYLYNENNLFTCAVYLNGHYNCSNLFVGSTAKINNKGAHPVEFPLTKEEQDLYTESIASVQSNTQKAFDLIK", "experiment": "Kinetics experiment with varying L-malate, substrate inhibition model", "design": "unit not given here", "conditions": "malate 5 mM, replicates", "experimental": "(§1) The oxidation of malate to oxaloacetate was assayed spectrophotometrically in flat-bottomed Corning 96-well microplates in a total volume of 250.0 µl in 50 mM glycine buffer pH 10.2[24] with an additional 400 mM NaCl for protein stability. The increase of absorbance at 340 nm was recorded in kinetic mode using a Tecan Spark multimode microplate reader at 298 K. A mastermix of 50 mM NAD+ and 44 μM PfMDH was used for both the screening and kinetics experiments. The final concentration of protein and cofactor were […], respectively. Positive control groups were set (absence of compound) in the same plate as the treated group. The absorbance from the background noise was subtracted from the data and then a linear regression model was employed in order to get the line slope from the first 5 min of the reaction. The percentage of enzymatic activity has been calculated as described by Eq. (1)1 enzymeactivity(%)=slopetreated/slopepositivecontrol*100\nKinetics experiments were performed by mixing 1.3 µL of compound stock solutions from 12.5 and 25 mM of 4PA in 100% DMSO with 223.8 µL mastermix of PfMDH previously incubated in ice with 3 mM NAD+ for 30 min. […] Kinetic constants Km (mM) and Vmax (U * mg^−^1) and Ki (mM) were quantified with GraphPad Prism version 8.0 according to the substrate inhibition Eq. (2)[52].2 Y=Vmax*X/(Km+X^*(1+X/Ki))"}, "[2]": {"target": "T1, PfMDH", "experiment": "Kinetics experiment with varying L-malate, substrate inhibition model", "design": "key to Ki (best-fit value, substrate inhibition model): Ki in mM; key to Vmax (best-fit value): Vmax in U/mg; 4PA kinetics raw data (rate): unit not given here", "conditions": "for Ki (best-fit value, substrate inhibition model) / Vmax (best-fit value): pH 10.2, Supplementary Table 6; for 4PA kinetics raw data (rate): replicates"}, "[3]": {"target": "T2, WT PfMDH (Plasmodium falciparum, UniProt Q6VVP7)", "T2 construct": "The full-length WT PfMDH gene was cloned into pETM-13; made in house; host or cells: E. coli Rosetta 2 (DE3) pLysS", "T2 sequence (Q6VVP7 entry or part of it)": "as above", "experiment": "4PA dose-response inhibition of PfMDH", "conditions": "for Slope / Response (Delta Abs[340 nm]/min): replicates", "experimental": "as §1\nWhile the fragment initially discovered was 4-(3,4-difluorophenyl) thiazol-2-amine, we decided to perform enzymatic and kinetic assays using a similar substructure 4-phenylthiazol-2-amine. 2× fold dilutions from a 200 mM stock solution of the compound in 100% DMSO was prepared for dose–response experiments. 3.3 µL of compound (DMSO in the case of positive control) were mixed with 233.9 µL mastermix of WT PfMDH previously incubated with 3 mM NAD + using a multichannel pipette. The final conditions tested were a maximum of 2.5 mM of 4PA at 1.32% (v/v) final DMSO concentration. The microplate was incubated for 15 min at 25.35 °C and the reaction started with the addition of 13.0 µL of 5 mM L-malate."}}, "note": "Where “and” joins values, the source holds several entries; their conditions need not be identical. Equal entries are not always repeated. Where two headings read alike, the source gives them in different places.", "data": [{"smiles": "Nc1nc(-c2ccccc2)cs1", "note": "[4PA, 4-phenylthiazol-2-amine]", "values": [{"measurement": "4PA kinetics raw data (rate)", "setting": "[1]; PfMDH + 63 uM", "value": "0.0233 and 0.02526 and 0.02238"}, {"measurement": "4PA kinetics raw data (rate)", "setting": "[1]; PfMDH + 125 uM", "value": "0.01868 and 0.01853 and 0.02184"}, {"measurement": "Ki (best-fit value, substrate inhibition model)", "setting": "[2]; 63 μM", "value": "63.00 ± 31.8"}, {"measurement": "Vmax (best-fit value)", "setting": "[2]; 63 μM", "value": "645.7 ± 29.0"}, {"measurement": "Ki (best-fit value, substrate inhibition model)", "setting": "[2]; 125 μM", "value": "72.93 ± 41.9"}, {"measurement": "Vmax (best-fit value)", "setting": "[2]; 125 μM", "value": "630.2 ± 28.5"}, {"measurement": "4PA kinetics raw data (rate)", "setting": "[2]; PfMDH + 63 uM, malate 0.078125 mM", "value": "0.0098 and 0.01006 and 0.00834"}, {"measurement": "4PA kinetics raw data (rate)", "setting": "[2]; PfMDH + 63 uM, malate 0.15625 mM", "value": "0.01266 and 0.01336 and 0.01325"}, {"measurement": "4PA kinetics raw data (rate)", "setting": "[2]; PfMDH + 63 uM, malate 0.3125 mM", "value": "0.01621 and 0.01654 and 0.01602"}, {"measurement": "4PA kinetics raw data (rate)", "setting": "[2]; PfMDH + 63 uM, malate 0.625 mM", "value": "0.02019 and 0.02009 and 0.02113"}, {"measurement": "4PA kinetics raw data (rate)", "setting": "[2]; PfMDH + 63 uM, malate 1.25 mM", "value": "0.02141 and 0.02369 and 0.02088"}, {"measurement": "4PA kinetics raw data (rate)", "setting": "[2]; PfMDH + 63 uM, malate 2.5 mM", "value": "0.02622 and 0.02453 and 0.02721"}, {"measurement": "4PA kinetics raw data (rate)", "setting": "[2]; PfMDH + 63 uM, malate 10 mM", "value": "0.02549 and 0.02349 and 0.01973"}, {"measurement": "4PA kinetics raw data (rate)", "setting": "[2]; PfMDH + 125 uM, malate 0.078125 mM", "value": "0.00804 and 0.006868 and 0.007099"}, {"measurement": "4PA kinetics raw data (rate)", "setting": "[2]; PfMDH + 125 uM, malate 0.15625 mM", "value": "0.01089 and 0.01117 and 0.0101"}, {"measurement": "4PA kinetics raw data (rate)", "setting": "[2]; PfMDH + 125 uM, malate 0.3125 mM", "value": "0.01419 and 0.01394 and 0.01404"}, {"measurement": "4PA kinetics raw data (rate)", "setting": "[2]; PfMDH + 125 uM, malate 0.625 mM", "value": "0.01376 and 0.01789 and 0.01385"}, {"measurement": "4PA kinetics raw data (rate)", "setting": "[2]; PfMDH + 125 uM, malate 1.25 mM", "value": "0.02005 and 0.02063 and 0.0175"}, {"measurement": "4PA kinetics raw data (rate)", "setting": "[2]; PfMDH + 125 uM, malate 2.5 mM", "value": "0.02038 and 0.02019 and 0.02077"}, {"measurement": "4PA kinetics raw data (rate)", "setting": "[2]; PfMDH + 125 uM, malate 10 mM", "value": "0.01925 and 0.01826 and 0.01944"}, {"measurement": "Ki change vs control", "setting": "[2]; in presence of 63 μM compound", "value": 5, "unit": "fold"}, {"measurement": "Ki change vs control", "setting": "[2]; in presence of 125 μM compound", "value": 6, "unit": "fold"}, {"measurement": "Vmax", "setting": "[2]; in the presence of 63 μM compound, control 967.8 ± 99.0", "value": "645.7 ± 29.0", "unit": "U mg^−1"}, {"measurement": "Vmax", "setting": "[2]; in the presence of 125 μM compound", "value": "630.2 ± 28.5", "unit": "U mg^−1"}, {"measurement": "mechanism of the inhibition", "setting": "[2]; vs malate", "value": "non-competitive"}, {"measurement": "IC50", "setting": "[3]; 5 mM L-malate, 3 mM NAD+, pH 10.2, read-out: IC50", "value": "1120 ± 30", "unit": "µM"}, {"measurement": "Slope", "setting": "[3]; Dose 1e-6 M", "value": "0.04587 and 0.04675 and 0.04799"}, {"measurement": "Slope", "setting": "[3]; Dose 0.000237161 M", "value": "0.03425 and 0.02991 and 0.02497"}, {"measurement": "Slope", "setting": "[3]; Dose 0.000332026 M", "value": "0.03311 and 0.03278 and 0.02964"}, {"measurement": "Slope", "setting": "[3]; Dose 0.000464836 M", "value": "0.03179 and 0.02952 and 0.02569"}, {"measurement": "Slope", "setting": "[3]; Dose 0.000650771 M", "value": "0.0287 and 0.02683 and 0.02888"}, {"measurement": "Slope", "setting": "[3]; Dose 0.000911079 M", "value": "0.02984 and 0.02623 and 0.02457"}, {"measurement": "Slope", "setting": "[3]; Dose 0.00127551 M", "value": "0.01897 and 0.02591 and 0.01942"}, {"measurement": "Slope", "setting": "[3]; Dose 0.00178571 M", "value": "0.01091 and 0.01205 and 0.0179"}, {"measurement": "Slope", "setting": "[3]; Dose 0.0025 M", "value": "0.01337 and 0.01172 and 0.009871"}, {"measurement": "Response (Delta Abs[340 nm]/min)", "setting": "[3]; Dose 1.00E-06 M", "value": "4.59E-02 Delta Abs[340 nm]/min and 4.67E-02 Delta Abs[340 nm]/min and 4.80E-02 Delta Abs[340 nm]/min"}, {"measurement": "Response (Delta Abs[340 nm]/min)", "setting": "[3]; Dose 1.28E-03 M", "value": "1.90E-02 Delta Abs[340 nm]/min and 2.59E-02 Delta Abs[340 nm]/min and 1.94E-02 Delta Abs[340 nm]/min"}, {"measurement": "Response (Delta Abs[340 nm]/min)", "setting": "[3]; Dose 1.79E-03 M", "value": "1.09E-02 Delta Abs[340 nm]/min and 1.20E-02 Delta Abs[340 nm]/min and 1.79E-02 Delta Abs[340 nm]/min"}, {"measurement": "Response (Delta Abs[340 nm]/min)", "setting": "[3]; Dose 2.37E-04 M", "value": "3.43E-02 Delta Abs[340 nm]/min and 2.99E-02 Delta Abs[340 nm]/min and 2.50E-02 Delta Abs[340 nm]/min"}, {"measurement": "Response (Delta Abs[340 nm]/min)", "setting": "[3]; Dose 2.50E-03 M", "value": "1.34E-02 Delta Abs[340 nm]/min and 1.17E-02 Delta Abs[340 nm]/min and 9.87E-03 Delta Abs[340 nm]/min"}, {"measurement": "Response (Delta Abs[340 nm]/min)", "setting": "[3]; Dose 3.32E-04 M", "value": "3.31E-02 Delta Abs[340 nm]/min and 3.28E-02 Delta Abs[340 nm]/min and 2.96E-02 Delta Abs[340 nm]/min"}, {"measurement": "Response (Delta Abs[340 nm]/min)", "setting": "[3]; Dose 4.65E-04 M", "value": "3.18E-02 Delta Abs[340 nm]/min and 2.95E-02 Delta Abs[340 nm]/min and 2.57E-02 Delta Abs[340 nm]/min"}, {"measurement": "Response (Delta Abs[340 nm]/min)", "setting": "[3]; Dose 6.51E-04 M", "value": "2.87E-02 Delta Abs[340 nm]/min and 2.68E-02 Delta Abs[340 nm]/min and 2.89E-02 Delta Abs[340 nm]/min"}, {"measurement": "Response (Delta Abs[340 nm]/min)", "setting": "[3]; Dose 9.11E-04 M", "value": "2.98E-02 Delta Abs[340 nm]/min and 2.62E-02 Delta Abs[340 nm]/min and 2.46E-02 Delta Abs[340 nm]/min"}, {"measurement": "LogIC50 (best-fit value)", "setting": "[3]; log(inhibitor) vs. normalized response, variable slope", "value": "-2.934 and -2.922"}, {"measurement": "IC50", "setting": "[3]; log(inhibitor) vs. normalized response, variable slope, read-out: IC50 (best-fit value)", "value": "1160 µM and 1200 µM"}]}]}
